Measured values from ChEMBL document CHEMBL1201862, “PubChem BioAssay data set” (2004).
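Assay format: 96-well plates, 48-hour exposure. At the GI50, growth is halved.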 The source made the active and inactive calls. No stated cut-off is given here; in the data, active = GI50 up to about 1.1 µM and inactive = higher.

What was measured:
Assay in all cases: growth of human tumour cells (NCI), 48 h
[1] = test system: UO-31
[2] = test system: MCF7
[3] = test system: MDA-MB-435
[4] = test system: K562
[5] = test system: SW-620
[6] = test system: HL-60
[7] = test system: SNB-75
[8] = test system: PC-3
[9] = test system: SF-295
[10] = test system: T47D
[11] = test system: SK-MEL-5
[12] = test system: OVCAR-5
[13] = test system: NCI-H460
[14] = test system: SK-OV-3
[15] = test system: BT-549
[16] = test system: NCI-H522
[17] = test system: HOP-62
[18] = test system: Malme-3M
[19] = test system: SN12C
[20] = test system: OVCAR-4

Measured: GI50

COc1cc2c(cc1OC)C(Cl)C(c1ccc(F)cc1)=C2Cl (stereo unspecified)
inactive: [1] 13.5 µM | [2] 11.6 µM | [3] 11.4 µM | [4] 6.12 µM | [5] 12.3 µM | [6] 5.68 µM | [7] 14.6 µM | [8] 12.4 µM | [9] 14.4 µM | [10] 10 µM | [11] 14.1 µM | [12] 16.6 µM | [13] 11.5 µM | [14] 20.1 µM | [15] 4.79 µM | [16] 7.73 µM | [17] 16.5 µM | [18] 13.2 µM | [19] 12.8 µM

Cc1ccc(S(=O)(=O)NC(=O)C2C(=O)CC3(CCCCC3)CC2=O)cc1
inactive: [1] 22.4 µM | [2] 22.8 µM | [3] 32.1 µM | [4] 38.1 µM | [5] 27.6 µM | [6] 29.5 µM | [7] 51.4 µM | [8] 25.6 µM | [9] 22 µM | [10] 20 µM | [11] 25.4 µM | [20] 32.4 µM | [12] 24.4 µM | [13] 25.2 µM | [14] 28.2 µM | [15] 27.5 µM | [16] 23.8 µM | [17] 25.4 µM | [19] 30.8 µM

C=C1C(=O)OC2(C)CCC1CC1OC1(C)CCC=C(C)CCC2O (stereo unspecified)
inactive: [1] 57.7 µM | [2] > 100 µM | [3] 44.3 µM | [4] 31 µM | [5] 45.4 µM | [6] 21.7 µM | [7] > 100 µM | [8] > 100 µM | [9] > 100 µM | [10] > 100 µM | [11] > 100 µM | [20] > 100 µM | [12] > 100 µM | [13] 46.9 µM | [14] > 100 µM | [15] 6.24 µM | [16] 64.7 µM | [18] > 100 µM | [19] 37.1 µM

COc1cc(C2S/C(=C/c3ccccc3)C(=O)N2Cc2ccccc2)cc(OC)c1OC (stereo unspecified)
inactive: [1] 24.4 µM | [2] 61.1 µM | [3] 25.5 µM | [4] 21.8 µM | [6] 21.2 µM | [7] 18.5 µM | [8] 28.2 µM | [9] 28.5 µM | [10] 5.07 µM | [11] 28.2 µM | [20] 23.2 µM | [12] > 100 µM | [14] 42.1 µM | [15] 54.5 µM | [16] 16.1 µM | [17] 26.2 µM | [19] 39.2 µM

CC1(C)C2CC(O)C1CCC2=O (stereo unspecified)
inactive: [1] > 100 µM | [2] > 100 µM | [3] > 100 µM | [4] > 100 µM | [6] > 100 µM | [7] > 100 µM | [8] > 100 µM | [9] > 100 µM | [10] > 100 µM | [11] > 100 µM | [20] > 100 µM | [12] > 100 µM | [13] > 100 µM | [14] > 100 µM | [15] > 100 µM | [16] > 100 µM | [17] > 100 µM | [18] > 100 µM | [19] > 100 µM

O=C1c2cc([N+](=O)[O-])ccc2-c2cccc(F)c21
inactive: [1] 85.3 µM | [2] 31.3 µM | [3] 76.7 µM | [4] 43 µM | [5] 48.3 µM | [6] 38.5 µM | [7] > 100 µM | [8] 73.8 µM | [9] > 100 µM | [10] 23.2 µM | [11] 70.6 µM | [20] > 100 µM | [12] > 100 µM | [13] 89.3 µM | [14] > 100 µM | [15] > 100 µM | [16] 44.5 µM | [17] > 100 µM | [19] > 100 µM

CC1=CC(=O)/C(=C/NC(=S)Nc2ccccc2)C(=O)O1
inactive: [1] > 100 µM | [2] > 100 µM | [3] > 100 µM | [4] > 100 µM | [5] > 100 µM | [6] > 100 µM | [7] > 100 µM | [8] > 100 µM | [9] > 100 µM | [10] > 100 µM | [11] > 100 µM | [20] > 100 µM | [12] > 100 µM | [13] > 100 µM | [14] > 100 µM | [15] > 100 µM | [16] 53.3 µM | [17] > 100 µM | [19] > 100 µM
